Reference: patent US8735384B2, “Amino heteroaryl compounds as beta-secretase modulators and methods of use” (Amgen Inc., priority 2010, dated 2014)
Like-named read-outs stand apart in the source and are kept apart here.

Tests used:
[1] = tested on: Aβ40 in conditioned medium of cells stably expressing Amyloid Precursor Protein (APP); assay: In vitro BACE cell-based assay (HEK cell assay), Aβ40 sandwich ELISA; details: Homo sapiens, HEK293, 24 h, inhibition of Aβ40, 24 h incubation, read-out: HEK cell assay (IC50 class)
Description: In Vitro BACE Cell-Based Assay:
The cell-based assay measures inhibition or reduction of Aβ40 in conditioned medium of test compound treated cells expressing amyloid precursor protein.
Cells stably expressing Amyloid Precursor Protein (APP) were plated at a density of 40K cells/well in 96 well plates (Costar). The cells were cultivated for 24 hours at 37° C. and 5% CO2 in DMEM supplemented with 10% FBS. The test compounds were then added to cells in 10-point dose response concentrations with the starting concentration being either 100 μM or 10 μM. The compounds were diluted from stock solutions in DMSO and the final DMSO concentration of the test compounds on cells was 0.1%. After 24 h of incubation with the test compounds the supernatant conditioned media was collected and the Aβ 40 levels were determined using a sandwich ELISA. The IC50 of the compound was calculated from the percent of control or percent inhibition of Aβ 40 as a function of the concentration of the test compound.
The sandwich ELISA to detect Aβ 40 was performed in 96 well microtiter plates, which were pre-treated with goat anti-rabbit IgG (Pierce). The capture and detecting antibody pair that were used to detect Aβ 40 from cell supernatants were affinity purified pAb40 (Biosource) and biotinylated 6E10 (Signet Labs Inc.), respectively. The optimal concentration for the pAb40 antibody was 3 μg/ml in Superblock/TBS (Pierce) that was supplemented with 0.05% Tween 20 (Sigma). Optimal concentration for the detection antibody 6E10-biotinylated was 0.5 μg/ml in Superblock/TBS (Pierce) that had been supplemented with 2% normal goat serum and 2% normal mouse serum.
Cellular supernatants were incubated with the capture antibody for 3 h at 4° C., followed by 3 wash steps in TBS-tween (0.05%). The detecting antibody incubation was for 2 h at 4° C., again followed by the wash steps as described previously. The final readout of the ELISA is Time-Resolved Fluorescence (counts per minute) using Delfia reagents Streptavidin-Europium and Enhancement solutions (Perkin Elmer) and the Victor 2 multilabel counter (Perkin Elmer).

BACE1 = BACE1 (Homo sapiens, UniProt P56817); assay: In vitro enzymatic BACE FRET assay; format: biochemical; details: beta secretase enzyme 0.2 nM, FRET substrate 50 nM, pH 4.2
Description: In Vitro Enzymatic BACE FRET (Fluorescence Resonance Energy Transfer) Assay (Enzyme Assay Data in Table 1)
The assay buffer used in this screen is 0.05 M acetate, pH 4.2, 10% DMSO final, 100 uM genapol (which is a nonionic detergent, below its Critical Micelle Concentration). The beta secretase enzyme (0.2 nM) is pre-incubated for one hour with inhibitors, typically in about 1 uL of DMSO according to a serial dilution, are added thereto. The assay is effectively started by the addition of FRET substrate (50 nM) and the combination is incubated for one hour. The FRET assay is terminated with by addition of Tris buffer, which raises the pH to neutrality, and the fluorescence is determined. The FRET substrate is a peptide with commercially available fluorophore and quencher, on opposite sides of the BACE cleavage site. Proteolytic cleavage of the FRET substrate releases quenching of fluorescence (excitation […] and […]).
Of the compounds tested, the in-vitro BACE FRET enzyme data for each of Examples 1-220, where available at the time of filing this application, is provided in Table 1.

[2] = read-out: BACE1 FRET assay (IC50 class)

Sequence of BACE1 (P56817 46-501, species assumed): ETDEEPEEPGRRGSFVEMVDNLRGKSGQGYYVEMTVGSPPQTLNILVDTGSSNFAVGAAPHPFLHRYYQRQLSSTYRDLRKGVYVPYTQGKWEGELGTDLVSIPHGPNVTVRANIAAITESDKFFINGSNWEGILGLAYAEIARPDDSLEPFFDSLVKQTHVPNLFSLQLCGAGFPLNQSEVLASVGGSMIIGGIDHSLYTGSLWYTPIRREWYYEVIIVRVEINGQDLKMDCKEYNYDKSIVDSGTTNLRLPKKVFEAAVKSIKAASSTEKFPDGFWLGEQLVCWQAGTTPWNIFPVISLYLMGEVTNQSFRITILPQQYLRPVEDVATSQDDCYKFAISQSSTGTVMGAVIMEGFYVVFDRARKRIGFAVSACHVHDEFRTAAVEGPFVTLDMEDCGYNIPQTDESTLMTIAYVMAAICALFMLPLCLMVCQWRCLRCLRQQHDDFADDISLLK

Structure (SMILES)	IC50 [1]	IC50 (BACE1; [2])	IC50 (BACE1; read-out: BACE1 FRET assay (IC50, numeric))
Cc1cccc(C(=O)N2CCCC2)c1-c1ccc2nc(N)c(N3CCCC3)cc2c1 [Example 60, (2-(2-amino-3-(pyrrolidin-1-yl)quinolin-6-yl)-3-methylphenyl)(pyrrolidin-1-yl)methanone]	1010 to 5000 nM	100 to 500 nM	
COc1ccccc1C(=O)c1cccc(C)c1-c1ccc2nc(N)c(N3CCOCC3)cc2c1 [Example 7, (2-(2-amino-3-morpholinoquinolin-6-yl)-3-methylphenyl)(2-methoxyphenyl)methanone]	100 to 500 nM	< 100 nM	
Cc1cccc(C(=O)N(C)CCc2ccccc2)c1-c1ccc2nc(N)c(N3CCOCC3)cc2c1 [Example 137, 2-(2-amino-3-morpholinoquinolin-6-yl)-N,3-dimethyl-N-phenethylbenzamide]	1010 to 5000 nM	100 to 500 nM	
Nc1nc2ccc(-c3c(CC4OCCO4)cccc3C(=O)N3CCCC3)cc2cc1N1CCOCC1 [Example 192, (3-((1,3-dioxolan-2-yl)methyl)-2-(2-amino-3-morpholinoquinolin-6-yl)phenyl)(pyrrolidin-1-yl)methanone]	100 to 500 nM	< 100 nM	
Nc1nc2ccc(-c3ccccc3C(=O)N3CCCC3)cc2cc1N1CCOCC1 [Example 146, (2-(2-amino-3-morpholinoquinolin-6-yl)phenyl)(pyrrolidin-1-yl)methanone]	1010 to 5000 nM	100 to 500 nM	
Cc1cccc(C(=O)C2CCCC2)c1-c1ccc2nc(N)c(N3CCOCC3)cc2c1 [Example 184, (2-(2-amino-3-morpholinoquinolin-6-yl)-3-methylphenyl)(cyclopentyl)methanone]	501 to 1000 nM	< 100 nM	
Cc1cccc(OCC(C)(C)C)c1-c1ccc2nc(N)c(N3CCOCC3)cc2c1 [Example 52, 6-(2-methyl-6-(neopentyloxy)phenyl)-3-morpholinoquinolin-2-amine]	> 5000 nM	< 100 nM	
Cc1cccc(C(=O)c2ccncn2)c1-c1ccc2nc(N)c(N3CCOCC3)cc2c1 [Example 23, (2-(2-amino-3-morpholinoquinolin-6-yl)-3-methylphenyl)(pyrimidin-4-yl)methanone]	> 5000 nM	100 to 500 nM	
Cc1cccc(C(=O)N2CCC[C@H]2C(F)(F)F)c1-c1ccc2nc(N)c(N3CCOCC3)cc2c1 [Example 94, (S)-(2-(2-amino-3-morpholinoquinolin-6-yl)-3-methylphenyl)(2-(trifluoromethyl)pyrrolidin-1-yl)methanone]	1010 to 5000 nM	100 to 500 nM	
CCCC(=N)c1cccc(C)c1-c1ccc2nc(N)c(N3CCOCC3)cc2c1 [Example 14, 6-(2-(1-iminobutyl)-6-methylphenyl)-3-morpholinoquinolin-2-amine]	> 5000 nM	100 to 500 nM	
Cc1ccc(C(=O)c2cccc(C)c2-c2ccc3nc(N)c(N4CCOCC4)cc3c2)cc1 [Example 178, (2-(2-amino-3-morpholinoquinolin-6-yl)-3-methylphenyl)(p-tolyl)methanone]	1010 to 5000 nM	< 100 nM	
COc1ccccc1N(C)C(=O)c1cccc(C)c1-c1ccc2nc(N)c(N3CCOCC3)cc2c1 [Example 139, 2-(2-amino-3-morpholinoquinolin-6-yl)-N-(2-methoxyphenyl)-N,3-dimethylbenzamide]	1010 to 5000 nM	< 100 nM	
Cc1cccc(C(=O)N2CCCC(F)(F)C2)c1-c1ccc2nc(N)c(N3CCOCC3)cc2c1 [Example 97, (2-(2-amino-3-morpholinoquinolin-6-yl)-3-methylphenyl)(3,3-difluoropiperidin-1-yl)methanone]	501 to 1000 nM	< 100 nM	
Cc1cccc(C(=O)N2CCCCC2)c1-c1ccc2nc(N)c(N3CCOCC3)cc2c1 [Example 58, (2-(2-amino-3-morpholinoquinolin-6-yl)-3-methylphenyl)(piperidin-1-yl)methanone]	501 to 1000 nM	< 100 nM	
CCCN(CC)C(=O)c1cccc(C)c1-c1ccc2nc(N)c(N3CCOCC3)cc2c1 [Example 105, 2-(2-amino-3-morpholinoquinolin-6-yl)-N-ethyl-3-methyl-N-propylbenzamide]	1010 to 5000 nM	501 to 1000 nM	
Cc1cccc(C(=O)N2CCC(F)(F)C2)c1-c1ccc2nc(N)c(N3CCOCC3)cc2c1 [Example 98, (2-(2-amino-3-morpholinoquinolin-6-yl)-3-methylphenyl)(3,3-difluoropyrrolidin-1-yl)methanone]	100 to 500 nM	< 100 nM	
Nc1nc2ccc(-c3cccc(F)c3C(=O)N3CCCC3)cc2cc1N1CCOCC1 [Example 142, (2-(2-amino-3-morpholinoquinolin-6-yl)-6-fluorophenyl)(pyrrolidin-1-yl)methanone]	> 5000 nM	1010 to 5000 nM	
Cc1cccc(C(=O)N2CCC[C@@H](C)C2)c1-c1ccc2nc(N)c(N3CCOCC3)cc2c1 [Example 77, (R)-(2-(2-amino-3-morpholinoquinolin-6-yl)-3-methylphenyl)(3-methylpiperidin-1-yl)methanone]	1010 to 5000 nM	< 100 nM	
Nc1nc2ccc(-c3c(CCC4CCCCC4)cccc3C(=O)N3CCCC3)cc2cc1N1CCOCC1 [Example 168, (2-(2-amino-3-morpholinoquinolin-6-yl)-3-(2-cyclohexylethyl)phenyl)(pyrrolidin-1-yl)methanone]	< 100 nM	< 100 nM	
CSC1=NCCN1C(=O)c1cccc(C)c1-c1ccc2nc(N)c(N3CCOCC3)cc2c1 [Example 114, (2-(2-amino-3-morpholinoquinolin-6-yl)-3-methylphenyl)(2-(methylthio)-4,5-dihydro-1H-imidazol-1-yl)methanone]	> 5000 nM		1140 nM
Cc1cccnc1C(=O)c1cccc(C)c1-c1ccc2nc(N)c(N3CCOCC3)cc2c1 [Example 189, (2-(2-amino-3-morpholinoquinolin-6-yl)-3-methylphenyl)(3-methylpyridin-2-yl)methanone]	501 to 1000 nM	100 to 500 nM	
CCN(C(=O)c1cccc(C)c1-c1ccc2nc(N)c(N3CCOCC3)cc2c1)C1CCCCC1 [Example 113, 2-(2-amino-3-morpholinoquinolin-6-yl)-N-cyclohexyl-N-ethyl-3-methylbenzamide]	1010 to 5000 nM	100 to 500 nM	
CC(C)(C)CCc1cccc(C(=O)N2CCC2)c1-c1ccc2nc(N)c(N3CCOCC3)cc2c1 [Example 164, (2-(2-amino-3-morpholinoquinolin-6-yl)-3-(3,3-dimethylbutyl)phenyl)(azetidin-1-yl)methanone]	< 100 nM	< 100 nM	
COc1cccnc1C(=O)c1cccc(C)c1-c1ccc2nc(N)c(N3CCOCC3)cc2c1 [Example 187, (2-(2-amino-3-morpholinoquinolin-6-yl)-3-methylphenyl)(3-methoxypyridin-2-yl)methanone]	100 to 500 nM	< 100 nM	
COc1ccc(N(C)C(=O)c2cccc(C)c2-c2ccc3nc(N)c(N4CCOCC4)cc3c2)cc1 [Example 132, 2-(2-amino-3-morpholinoquinolin-6-yl)-N-(4-methoxyphenyl)-N,3-dimethylbenzamide]	501 to 1000 nM	< 100 nM	
CCCCN(C)C(=O)c1cccc(C)c1-c1ccc2nc(N)c(N3CCOCC3)cc2c1 [Example 117, 2-(2-amino-3-morpholinoquinolin-6-yl)-N-butyl-N,3-dimethylbenzamide]	1010 to 5000 nM	< 100 nM	
Cc1cccc(C(=O)Nc2ccccc2)c1-c1ccc2nc(N)c(N3CCOCC3)cc2c1 [Example 127, 2-(2-amino-3-morpholinoquinolin-6-yl)-3-methyl-N-phenylbenzamide]	> 5000 nM	1010 to 5000 nM	
Cc1cccc(C(=O)N2CCCC2)c1-c1ccc2nc(N)c(C3CCOC(C)(C)C3)cc2c1 (centres unmarked) [Example 205, (2-(2-amino-3-(2,2-dimethyltetrahydro-2H-pyran-4-yl)quinolin-6-yl)-3-methylphenyl)(pyrrolidin-1-yl)methanone]	< 100 nM	< 100 nM	
